Reference: patent publication US11000033B2, “Ketone or oxime compound, and herbicide” (NISSAN CHEMICAL CORPORATION, priority 2014, dated 2021)

Columns and labels:
Format in all cases: in vivo
Apera spica-venti [1] = experiment: Test Example 5: herbicidal effect by foliage application, plastic box (symbol L); conditions: 320 g/ha, 3 weeks after application
Summary of the method: (§1)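 Effect is rated 3 weeks after a foliar spray of water-diluted emulsion concentrate at a predetermined herbicide amount. Plants had grown 14 days in a 25° C. to 30° C. greenhouse from seed in sterilized diluvial soil.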

Alopecurus myosuroides [2] = experiment: Test Example 5: herbicidal effect by foliage application, plastic box (symbol J); conditions: 320 g/ha, 3 weeks after application
Summary of the method: as §1

beet = experiment: Test Example 5: effect on crop by foliage application, plastic box (symbol f); conditions: 320 g/ha, 3 weeks after application
Summary of the method: (§2)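 In a plastic box 7 cm deep filled with sterilized diluvial soil, seeds of crops and weeds such as Digitaria ciliaris, Avena fatua and Amaranthus retroflexus are sown in spots and covered with about 1.5 cm of soil before greenhouse growth at 25–30° C.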

Setaria viridis = experiment: Test Example 4: herbicidal effect by soil treatment (symbol G); conditions: application herbicide amount 320 g/ha
Summary of the method: (§3)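 Seeds were sown in sterilized diluvial soil, covered with about 1.5 cm of soil, and the soil surface was sprayed with a water-diluted emulsion of the compound at a predetermined rate. Plants grew in a greenhouse at 25° C. to 30° C.; effects were scored visually 3 weeks after application.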

[3] = tested on: Echinochloa crus-galli var. crus-galli; experiment: Test Example 3: herbicidal effect by foliage application, Wagner pot (symbol H); conditions: application herbicide amount 320 g/ha
Summary of the method: (§4)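 Steps: fill pot with alluvial soil; add water to 0.1–0.5 cm depth; sow weed and rice seed; grow 14 days at 25–30 °C; spray diluted emulsion over the leaves; rate effect after 3 weeks.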

Scirpus juncoides = experiment: Test Example 1: herbicidal activity, application before weed generation in submerged conditions (symbol B); conditions: application herbicide amount 320 g/ha
Summary of the method: (§5)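 Compound emulsion was diluted to a set herbicide amount and applied to the water surface on the sowing day, into submerged (4 cm) alluvial-soil pots sown with mixed weed seeds and transplanted 2.5-leaf rice. Pots were held in a 25–30 °C greenhouse, and weeds were scored 0–5 by herbicidal ratio after 3 weeks.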

Cyperus difformis = experiment: Test Example 3: herbicidal effect by foliage application, Wagner pot (symbol E); conditions: application herbicide amount 320 g/ha
Summary of the method: as §4

Stellaria media = experiment: Test Example 5: herbicidal effect by foliage application, plastic box (symbol P); conditions: 320 g/ha, 3 weeks after application
Summary of the method: as §1

Abutilon theophrasti = experiment: Test Example 5: herbicidal effect by foliage application, plastic box (symbol M); conditions: 320 g/ha, 3 weeks after application
Summary of the method: as §1

rapeseed [4] = experiment: Test Example 4: effect on crop by soil treatment (symbol g); conditions: application herbicide amount 320 g/ha
Summary of the method: (§6)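 Grown at 25° C. to 30° C. in a greenhouse, the crops came from seed sown spot-wise in sterilized diluvial soil under roughly 1.5 cm of covering soil.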

wheat = experiment: Test Example 4: effect on crop by soil treatment (symbol e); conditions: application herbicide amount 320 g/ha
Summary of the method: as §6

[5] = tested on: Echinochloa oryzacola Vasing.; experiment: Test Example 1: herbicidal activity, application before weed generation in submerged conditions (symbol A); conditions: application herbicide amount 320 g/ha
Summary of the method: as §5

Amaranthus retroflexus = experiment: Test Example 5: herbicidal effect by foliage application, plastic box (symbol N); conditions: 320 g/ha, 3 weeks after application
Summary of the method: as §1

Alopecurus myosuroides [6] = experiment: Test Example 4: herbicidal effect by soil treatment (symbol J); conditions: application herbicide amount 320 g/ha
Summary of the method: as §3

Digitaria ciliaris = experiment: Test Example 5: herbicidal effect by foliage application, plastic box (symbol F); conditions: 320 g/ha, 3 weeks after application
Summary of the method: as §1

rapeseed [7] = experiment: Test Example 5: effect on crop by foliage application, plastic box (symbol g); conditions: 320 g/ha, 3 weeks after application
Summary of the method: as §2

Apera spica-venti [8] = experiment: Test Example 4: herbicidal effect by soil treatment (symbol L); conditions: application herbicide amount 320 g/ha
Summary of the method: as §3

Galium spurium = experiment: Test Example 5: herbicidal effect by foliage application, plastic box (symbol Q); conditions: 320 g/ha, 3 weeks after application
Summary of the method: as §1

Structure (SMILES) | L: Apera spica-venti, herbicidal effect (criteria of Test Example 1) (Apera spica-venti [1]) | J: Alopecurus myosuroides, herbicidal effect (criteria of Test Example 1) (Alopecurus myosuroides [2]) | f: beet, effect on crop (criteria of Test Example 1) (beet) | herbicidal effect on H (Echinochloa crus-galli var. crus-galli), grade 0-5 [3] | Herbicidal effect grade, B: Scirpus juncoides (Scirpus juncoides) | herbicidal effect on E, grade 0-5 (Cyperus difformis) | P: Stellaria media, herbicidal effect (criteria of Test Example 1) (Stellaria media) | M: Abutilon theophrasti, herbicidal effect (criteria of Test Example 1) (Abutilon theophrasti) | Herbicidal effect grade, A: Echinochloa oryzacola Vasing. [5] | N: Amaranthus retroflexus, herbicidal effect (criteria of Test Example 1) (Amaranthus retroflexus) | F: Digitaria ciliaris, herbicidal effect (criteria of Test Example 1) (Digitaria ciliaris) | g: rapeseed, effect on crop (criteria of Test Example 1) (rapeseed [7]) | Herbicidal effect grade, G: Setaria viridis (Setaria viridis) | Effect on crop grade, g: rapeseed (rapeseed [4]) | Effect on crop grade, e: wheat (wheat) | Herbicidal effect grade, J: Alopecurus myosuroides (Alopecurus myosuroides [6]) | Q: Galium spurium, herbicidal effect (criteria of Test Example 1) (Galium spurium) | further results
CON=C(C)CC1CC(OC(=O)N2CCOCC2)=C(c2c(C)cc(-c3ccc(Cl)cc3)cc2OC)C1=O (centres unmarked) [6-078, 2-(4′-chloro-3-methoxy-5-methyl-[1,1′-biphenyl]-4-yl)-4-{2-(methoxyimino)propyl}-3-oxocyclopent-1-ene-1-yl morpholine-4-carboxylate] | 5 (Herbicidal ratio of 90% or more (almost completely withered)) | 5 (Herbicidal ratio of 90% or more (almost completely withered)) | 0 (Herbicidal ratio of 5% or lower (almost no effect)) | 5 (Herbicidal ratio of 90% or more (almost completely withered)) | 5 (Herbicidal ratio of 90% or more (almost completely withered)) | 0 (Herbicidal ratio of 5% or lower (almost no effect)) | 3 (Herbicidal ratio of 40% or higher and lower than 70%) | 4 (Herbicidal ratio of 70% or higher and lower than 90%) | 5 (Herbicidal ratio of 90% or more (almost completely withered)) | 0 (Herbicidal ratio of 5% or lower (almost no effect)) | 5 (Herbicidal ratio of 90% or more (almost completely withered)) | 4 (Herbicidal ratio of 70% or higher and lower than 90%) | – | – | – | – | – | G: Setaria viridis, herbicidal effect grade (Setaria viridis): 5 (Herbicidal ratio of 90% or more (almost completely withered)); g: rapeseed, effect on crop grade (rapeseed [4]): 0 (Herbicidal ratio of 5% or lower (almost no effect)); e: wheat, effect on crop grade (wheat): 0 (Herbicidal ratio of 5% or lower (almost no effect)); J: Alopecurus myosuroides, herbicidal effect grade (Alopecurus myosuroides [6]): 0 (Herbicidal ratio of 5% or lower (almost no effect)); L: Apera spica-venti, herbicidal effect grade (Apera spica-venti [8]): 3 (Herbicidal ratio of 40% or higher and lower than 70%)
CON=C(C)C(=O)C1CC(O)=C(c2c(C)cc(C)cc2C)C1=O (centres unmarked) [8-002] | – | – | – | – | 0 (Herbicidal ratio of 5% or lower (almost no effect)) | – | – | – | 0 (Herbicidal ratio of 5% or lower (almost no effect)) | – | – | – | 0 (Herbicidal ratio of 5% or lower (almost no effect)) | 0 (Herbicidal ratio of 5% or lower (almost no effect)) | 0 (Herbicidal ratio of 5% or lower (almost no effect)) | 0 (Herbicidal ratio of 5% or lower (almost no effect)) | – | L: Apera spica-venti, herbicidal effect grade (Apera spica-venti [1]): 3 (Herbicidal ratio of 40% or higher and lower than 70%); J: Alopecurus myosuroides, herbicidal effect grade (Alopecurus myosuroides [2]): 4 (Herbicidal ratio of 70% or higher and lower than 90%); f: beet, effect on crop grade (beet): 0 (Herbicidal ratio of 5% or lower (almost no effect)); H (Echinochloa crus-galli var. crus-galli) herbicidal effect grade ([3]; Table 24): 0 (Herbicidal ratio of 5% or lower (almost no effect)); E herbicidal effect grade (Cyperus difformis; Table 24): 0 (Herbicidal ratio of 5% or lower (almost no effect)); P: Stellaria media, herbicidal effect grade (Stellaria media): 0 (Herbicidal ratio of 5% or lower (almost no effect)); M: Abutilon theophrasti, herbicidal effect grade (Abutilon theophrasti): 0 (Herbicidal ratio of 5% or lower (almost no effect)); N: Amaranthus retroflexus, herbicidal effect grade (Amaranthus retroflexus): 0 (Herbicidal ratio of 5% or lower (almost no effect)); F: Digitaria ciliaris, herbicidal effect grade (Digitaria ciliaris): 0 (Herbicidal ratio of 5% or lower (almost no effect)); g: rapeseed, effect on crop grade (rapeseed [7]): 1 (Herbicidal ratio of 5% or higher and lower than 20%); Herbicidal effect grade, L: Apera spica-venti (Apera spica-venti [8]): 0 (Herbicidal ratio of 5% or lower (almost no effect))
CON=C(C)CC1CC(O)=C(c2c(F)cc(Br)cc2OC)C1=O (centres unmarked) [6-096] | 3 (Herbicidal ratio of 40% or higher and lower than 70%) | 4 (Herbicidal ratio of 70% or higher and lower than 90%) | 0 (Herbicidal ratio of 5% or lower (almost no effect)) | 5 (Herbicidal ratio of 90% or more (almost completely withered)) | 0 (Herbicidal ratio of 5% or lower (almost no effect)) | 5 (Herbicidal ratio of 90% or more (almost completely withered)) | 1 (Herbicidal ratio of 5% or higher and lower than 20%) | – | 1 (Herbicidal ratio of 5% or higher and lower than 20%) | – | – | 4 (Herbicidal ratio of 70% or higher and lower than 90%) | 4 (Herbicidal ratio of 70% or higher and lower than 90%) | 0 (Herbicidal ratio of 5% or lower (almost no effect)) | 0 (Herbicidal ratio of 5% or lower (almost no effect)) | 3 (Herbicidal ratio of 40% or higher and lower than 70%) | 0 (Herbicidal ratio of 5% or lower (almost no effect)) | –
CON=C(C)CC1CC(OC(=O)COc2ccccc2)=C(c2c(C)cc(-c3ccc(Cl)cc3Cl)cc2C)C1=O (centres unmarked) [6-092] | 3 (Herbicidal ratio of 40% or higher and lower than 70%) | 5 (Herbicidal ratio of 90% or more (almost completely withered)) | 0 (Herbicidal ratio of 5% or lower (almost no effect)) | 5 (Herbicidal ratio of 90% or more (almost completely withered)) | 0 (Herbicidal ratio of 5% or lower (almost no effect)) | 4 (Herbicidal ratio of 70% or higher and lower than 90%) | 3 (Herbicidal ratio of 40% or higher and lower than 70%) | 0 (Herbicidal ratio of 5% or lower (almost no effect)) | 3 (Herbicidal ratio of 40% or higher and lower than 70%) | 0 (Herbicidal ratio of 5% or lower (almost no effect)) | 5 (Herbicidal ratio of 90% or more (almost completely withered)) | 4 (Herbicidal ratio of 70% or higher and lower than 90%) | 5 (Herbicidal ratio of 90% or more (almost completely withered)) | 0 (Herbicidal ratio of 5% or lower (almost no effect)) | 0 (Herbicidal ratio of 5% or lower (almost no effect)) | 3 (Herbicidal ratio of 40% or higher and lower than 70%) | 4 (Herbicidal ratio of 70% or higher and lower than 90%) | –
